Results: ChEMBL document CHEMBL1201862, “PubChem BioAssay data set” (2004)
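Briefly, cells in 96-well plates were exposed to five compound concentrations for 48 h, and endpoints were estimated by linear interpolation. GI50 is the concentration that inhibits growth by half.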 Active and inactive are the calls of the source. Rule as the data show it: active = GI50 up to about 1.1 µM and inactive = higher.

Key:
Assay in all cases: growth of human tumour cells (NCI), 48 h
[1] = system: 786-0
[2] = system: A498
[3] = system: A549
[4] = system: ACHN
[5] = system: BT-549
[6] = system: CAKI-1
[7] = system: CCRF-CEM
[8] = system: COLO 205
[9] = system: DU-145
[10] = system: EKVX
[11] = system: HCC 2998
[12] = system: HCT-116
[13] = system: HCT-15
[14] = system: HOP-62
[15] = system: HOP-92
[16] = system: HT-29
[17] = system: Hs-578T
[18] = system: IGROV-1
[19] = system: K562
[20] = system: KM12
[21] = system: LOX IMVI
[22] = system: M14
[23] = system: MCF7
[24] = system: MDA-MB-231
[25] = system: MDA-MB-435
[26] = system: MDA-N
[27] = system: MOLT-4
[28] = system: Malme-3M
[29] = system: NCI-H226
[30] = system: NCI-H23
[31] = system: NCI-H460
[32] = system: NCI-H522
[33] = system: NCI/ADR-RES
[34] = system: OVCAR-3
[35] = system: OVCAR-4
[36] = system: OVCAR-5
[37] = system: OVCAR-8
[38] = system: PC-3
[39] = system: RPMI-8226
[40] = system: RXF 393
[41] = system: SF-268
[42] = system: SF-295
[43] = system: SK-MEL-28
[44] = system: SK-MEL-2
[45] = system: SK-MEL-5
[46] = system: SK-OV-3
[47] = system: SN12C
[48] = system: SNB-19
[49] = system: SNB-75
[50] = system: SR
[51] = system: SW-620
[52] = system: T47D
[53] = system: TK-10
[54] = system: U-251
[55] = system: UACC-257
[56] = system: UACC-62
[57] = system: UO-31
[58] = system: HL-60
[59] = system: SF-539

Measured: GI50

O=c1c2c3c(sc2nc2n1N=CN(c1ccc(F)cc1)C2)CCCC3
> 100 µM: [13]
inactive: [1] > 100 µM | [2] > 100 µM | [3] > 100 µM | [4] > 100 µM | [5] > 100 µM | [6] > 100 µM | [7] > 100 µM | [8] > 100 µM | [9] > 100 µM | [10] > 100 µM | [11] > 100 µM | [12] > 100 µM | [14] > 100 µM | [15] > 100 µM | [16] > 100 µM | [17] > 100 µM | [18] > 100 µM | [19] > 100 µM | [20] > 100 µM | [21] > 100 µM | [22] > 100 µM | [23] > 100 µM | [24] > 100 µM | [25] > 100 µM | [26] > 100 µM | [27] > 100 µM | [28] > 100 µM | [29] > 100 µM | [30] > 100 µM | [31] > 100 µM | [32] > 100 µM | [33] > 100 µM | [34] > 100 µM | [35] > 100 µM | [36] > 100 µM | [37] > 100 µM | [38] > 100 µM | [39] > 100 µM | [40] > 100 µM | [41] > 100 µM | [42] > 100 µM | [43] > 100 µM | [44] > 100 µM | [45] > 100 µM | [46] > 100 µM | [47] > 100 µM | [48] > 100 µM | [49] > 100 µM | [50] > 100 µM | [51] > 100 µM | [52] > 100 µM | [53] > 100 µM | [54] > 100 µM | [55] > 100 µM | [56] > 100 µM | [57] > 100 µM

CC(C)=CCC[C@@H](C)C1=C(O)C(=O)C(C)=C(Nc2ccccc2I)C1=O
6.56 µM: [13]
inactive: [1] 13.5 µM | [2] 5.43 µM | [3] 11.8 µM | [4] 16.4 µM | [5] 23.6 µM | [6] 12.9 µM | [7] 3.03 µM | [8] 15.5 µM | [9] 23.4 µM | [10] 18.2 µM | [11] 16.6 µM | [12] 11.8 µM | [58] 2.19 µM | [14] 7.59 µM | [15] 14.5 µM | [16] 14 µM | [17] 9.12 µM | [18] 3.41 µM | [19] 12.5 µM | [20] 7.55 µM | [21] 5.73 µM | [22] 17 µM | [23] 23.2 µM | [24] 23.8 µM | [25] 21.5 µM | [26] 21.2 µM | [27] 2.22 µM | [28] 12.2 µM | [29] 5.42 µM | [30] 6.05 µM | [31] 10.1 µM | [33] 2.28 µM | [34] 4.6 µM | [35] 5.01 µM | [36] 38.2 µM | [37] 3.08 µM | [38] 5.61 µM | [39] 9.1 µM | [40] 13.2 µM | [41] 11.3 µM | [42] 4.22 µM | [59] 9.23 µM | [43] 18.3 µM | [44] 10.8 µM | [45] 9.79 µM | [46] 18.5 µM | [47] 16.7 µM | [48] 25.4 µM | [49] 6.14 µM | [50] 1.3 µM | [51] 21.9 µM | [52] 8.2 µM | [53] 22.1 µM | [54] 7.01 µM | [55] 16.3 µM | [56] 9.27 µM | [57] 10.1 µM

COc1ccc([C@]23CCN4COC[C@@H]([C@H]42)C2(CC3)OCC(C)(C)CO2)cc1OC
inactive: [1] > 100 µM | [2] > 100 µM | [3] > 100 µM | [4] > 100 µM | [5] > 100 µM | [6] > 100 µM | [7] > 100 µM | [8] > 100 µM | [9] > 100 µM | [10] > 100 µM | [11] > 100 µM | [12] > 100 µM | [58] > 100 µM | [14] > 100 µM | [15] 31.3 µM | [16] 89.7 µM | [17] > 100 µM | [18] > 100 µM | [19] > 100 µM | [20] > 100 µM | [21] > 100 µM | [22] > 100 µM | [23] > 100 µM | [24] > 100 µM | [25] > 100 µM | [26] > 100 µM | [27] > 100 µM | [28] > 100 µM | [29] > 100 µM | [30] > 100 µM | [31] > 100 µM | [32] > 100 µM | [33] > 100 µM | [35] > 100 µM | [36] > 100 µM | [37] > 100 µM | [38] > 100 µM | [39] > 100 µM | [40] > 100 µM | [41] > 100 µM | [42] > 100 µM | [43] > 100 µM | [44] > 100 µM | [45] > 100 µM | [46] > 100 µM | [47] > 100 µM | [48] > 100 µM | [49] 53.3 µM | [50] > 100 µM | [51] > 100 µM | [52] 66.5 µM | [53] > 100 µM | [54] > 100 µM | [55] > 100 µM | [56] > 100 µM | [57] > 100 µM
> 100 µM: [13]

S=C(NCc1ccccc1)N/N=C/c1ccccn1
inactive: [1] 1.59 µM | [2] 3.87 µM | [3] 4.29 µM | [4] 1.27 µM | [5] 8.02 µM | [9] 3.08 µM | [10] 1.82 µM | [11] 6.31 µM | [14] 3.7 µM | [15] 2.21 µM | [17] 14.8 µM | [18] 1.58 µM | [20] 4.91 µM | [21] 1.53 µM | [24] 1.24 µM | [25] 5.69 µM | [26] 8.53 µM | [28] 1.45 µM | [29] 2.01 µM | [30] 3.56 µM | [31] 2.04 µM | [33] 1.88 µM | [35] 3.01 µM | [36] > 21.8 µM | [37] 1.15 µM | [41] 1.42 µM | [42] 1.86 µM | [59] 4.6 µM | [43] 5.62 µM | [44] 14.1 µM | [45] 3.52 µM | [46] 3.94 µM | [47] 4.31 µM | [48] 7.93 µM | [49] 3.91 µM | [51] 1.16 µM | [53] 12.9 µM | [54] 2.97 µM | [55] 2.42 µM | [56] 3.27 µM | [57] 1.25 µM
active: [6] 0.335 µM | [7] < 0.0409 µM | [8] 0.104 µM | [12] 0.34 µM | [58] 0.0302 µM | [16] 0.743 µM | [19] 0.0815 µM | [22] 0.5 µM | [23] 0.834 µM | [27] 0.0612 µM | [32] 0.982 µM | [34] 0.222 µM | [38] 0.762 µM | [39] 0.118 µM | [50] 0.29 µM | [52] 0.161 µM
1.26 µM: [13]
